# Measurements from patent publication US8916565B2, “Pyrrolopyrazine-spirocyclic piperidine amides as modulators of ion channels” (priority 2011, dated 2014).
# Target: human NaV subtype, like NaV 1.7 (Homo sapiens, UniProt Q15858)
# Assay: E-VIPR optical membrane potential assay with electrical stimulation
# Type: cell-based
# Settings: active against one or more sodium channels; Table 3 does not name the assay or NaV subtype; read-out: Binned Activity Data (IC50)
# Chain of human NaV subtype, like NaV 1.7 (Q15858 whole entry): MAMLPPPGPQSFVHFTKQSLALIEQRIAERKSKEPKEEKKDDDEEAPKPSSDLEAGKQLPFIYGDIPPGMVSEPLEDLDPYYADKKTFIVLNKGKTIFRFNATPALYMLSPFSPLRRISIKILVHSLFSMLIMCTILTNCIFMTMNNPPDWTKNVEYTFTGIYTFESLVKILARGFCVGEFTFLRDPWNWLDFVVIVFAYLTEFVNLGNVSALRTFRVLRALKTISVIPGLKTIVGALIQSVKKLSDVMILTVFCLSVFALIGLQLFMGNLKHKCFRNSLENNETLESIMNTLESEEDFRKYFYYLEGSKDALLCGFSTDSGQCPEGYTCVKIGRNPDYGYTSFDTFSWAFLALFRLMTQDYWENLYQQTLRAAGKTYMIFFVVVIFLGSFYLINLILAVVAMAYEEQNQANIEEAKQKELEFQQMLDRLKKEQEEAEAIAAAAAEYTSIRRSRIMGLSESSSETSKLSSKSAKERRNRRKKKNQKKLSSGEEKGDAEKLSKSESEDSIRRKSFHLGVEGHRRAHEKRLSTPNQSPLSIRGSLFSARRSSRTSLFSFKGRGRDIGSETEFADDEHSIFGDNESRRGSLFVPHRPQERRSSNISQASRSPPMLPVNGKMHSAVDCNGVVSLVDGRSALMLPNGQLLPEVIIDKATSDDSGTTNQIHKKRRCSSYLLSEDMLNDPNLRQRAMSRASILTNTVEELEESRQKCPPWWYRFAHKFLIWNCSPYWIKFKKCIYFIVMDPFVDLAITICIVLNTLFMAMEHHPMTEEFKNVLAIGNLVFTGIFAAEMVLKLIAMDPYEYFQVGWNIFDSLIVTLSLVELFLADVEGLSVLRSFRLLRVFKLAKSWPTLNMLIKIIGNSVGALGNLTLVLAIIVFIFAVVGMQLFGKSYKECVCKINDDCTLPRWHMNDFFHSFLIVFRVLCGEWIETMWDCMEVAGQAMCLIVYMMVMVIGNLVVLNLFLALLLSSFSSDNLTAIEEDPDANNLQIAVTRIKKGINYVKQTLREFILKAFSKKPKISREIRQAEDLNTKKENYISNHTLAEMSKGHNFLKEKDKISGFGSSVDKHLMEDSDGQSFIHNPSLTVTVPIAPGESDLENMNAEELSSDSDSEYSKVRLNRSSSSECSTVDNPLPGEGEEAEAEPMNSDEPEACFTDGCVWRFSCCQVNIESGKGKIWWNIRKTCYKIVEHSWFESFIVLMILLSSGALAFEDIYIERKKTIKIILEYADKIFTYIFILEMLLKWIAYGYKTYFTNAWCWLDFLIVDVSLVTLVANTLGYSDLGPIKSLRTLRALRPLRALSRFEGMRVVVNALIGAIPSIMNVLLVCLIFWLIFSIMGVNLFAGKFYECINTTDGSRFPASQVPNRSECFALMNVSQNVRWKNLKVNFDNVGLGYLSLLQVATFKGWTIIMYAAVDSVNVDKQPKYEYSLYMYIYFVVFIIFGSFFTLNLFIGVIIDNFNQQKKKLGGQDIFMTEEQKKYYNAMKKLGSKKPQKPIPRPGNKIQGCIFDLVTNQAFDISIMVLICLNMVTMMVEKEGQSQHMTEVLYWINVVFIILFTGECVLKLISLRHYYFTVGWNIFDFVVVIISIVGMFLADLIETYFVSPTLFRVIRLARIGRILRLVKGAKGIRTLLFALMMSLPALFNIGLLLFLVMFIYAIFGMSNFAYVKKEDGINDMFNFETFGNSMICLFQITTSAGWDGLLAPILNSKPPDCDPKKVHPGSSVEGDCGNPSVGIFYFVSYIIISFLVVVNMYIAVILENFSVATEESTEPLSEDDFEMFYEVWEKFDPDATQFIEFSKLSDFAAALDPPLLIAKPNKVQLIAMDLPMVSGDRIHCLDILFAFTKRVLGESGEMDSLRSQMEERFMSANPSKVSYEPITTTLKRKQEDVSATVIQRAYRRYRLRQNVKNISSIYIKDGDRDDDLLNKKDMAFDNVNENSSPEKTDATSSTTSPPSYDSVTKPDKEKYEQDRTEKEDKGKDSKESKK
row,SMILES,IC50 [µM]
1,CCOC(=O)CN1CCn2c(C(F)(F)F)ccc2C12CCN(C(=O)c1ccc(OC(C)C)c(C)c1)CC2 [Compound 426],≤ 2
2,CN1CCn2c(C(=O)C(F)(F)F)ccc2C12CCN(C(=O)c1ccc(COc3ccccc3)cc1)CC2 [Compound 214],≤ 2
3,CCC(C)(C)c1ccc(C(=O)N2CCC3(CC2)NC(C)(C)Cn2c(C(=O)C(F)(F)F)ccc23)cc1 [Compound 408],≤ 2
4,CC(C)Oc1ccc(C(=O)N2CCC3(CC2)c2ccc(C(F)(F)F)n2C[C@@H](C)N3C)c(F)c1 [Compound 749],2 to 5
5,CC1CN(C)C2(CCN(C(=O)c3ccc(COCCC(F)(F)F)cc3)CC2)c2ccc(C(=O)C(F)(F)F)n21 (stereo not shown) [Compound 8],≤ 2
6,Cc1cc(C(=O)N2CCC3(CC2)c2c(F)cc(C(F)(F)F)n2CCN3C)ccc1OC(C)C [Compound 672],≤ 2
7,COc1ccc(C(=O)N2CCC3(CC2)c2ccc(C(=O)c4ccccc4)n2CCN3C)cc1Cl [Compound 74],2 to 5
8,CC(=O)c1ccc2n1CCN(C)C21CCN(C(=O)c2ccc(-c3ccccc3)cc2)CC1 [Compound 163],> 5
9,O=C(c1ccccc1-c1ccccc1)N1CCC2(CC1)NCCn1c(C(F)(F)F)ccc12 [Compound 603],> 5
10,COc1cc(C(=O)N2CCC3(CC2)c2ccc(C(F)(F)F)n2C[C@@H](C)N3C)ccc1OC(C)C [Compound 677],> 5
11,Cc1cc(C(=O)N2CCC3(CC2)c2cc(C(=O)C(F)(F)F)cn2C(C)(C)CN3C)ccc1OC(C)C [Compound 231],> 5
12,COCCOc1ccc(C(=O)N2CCC3(CC2)c2c(F)cc(C(F)(F)F)n2CCN3C)cc1 [Compound 736],≤ 2
13,Cc1nc(C(=O)N2CCC3(CC2)c2ccc(C(F)(F)F)n2CCN3C)ccc1OC(C)C [Compound 200],≤ 2
14,COc1cc(C(=O)N2CCC3(CC2)c2c(Cl)cc(C(F)(F)F)n2CCN3C)ccc1OCC(C)(C)F [Compound 258],≤ 2
15,Cc1cc(C(F)F)n2ncc(C(=O)N3CCC4(CC3)c3ccc(C(=O)C(C)(C)C)n3CCN4C)c2n1 [Compound 248],≤ 2
16,CN1CCn2c(C(=O)C(F)(F)F)ccc2C12CCN(C(=O)c1ccc(C(CO)OCC(F)(F)F)cc1)CC2 (stereo not shown) [Compound 136],≤ 2
17,CN1CCn2c(C(F)(F)F)ccc2[C@]12CCN(C(=O)c1ccc(S(=O)(=O)NC3CC3)cc1)C[C@H]2F [Compound 244],≤ 2
18,COc1ccc(C(=O)N2CCC3(CC2)c2ccc(C(=O)C(F)(F)F)n2C[C@H](C)N3C)cc1C [Compound 14],≤ 2
19,CC(C)C(O)c1ccc(C(=O)N2CCC3(CC2)c2c(F)cc(C(F)(F)F)n2CCN3C)cc1 (stereo not shown) [Compound 395],≤ 2
20,Cc1cc(C(=O)N2CCC3(CC2)c2ccc(C(=O)C(F)(F)F)n2C[C@H](C)N3C)ccc1O [Compound 207],≤ 2
21,CCCCOc1ccc(C(=O)N2CCC3(CC2)c2ccc(Cl)n2CCN3C)cc1OC [Compound 65],≤ 2
22,COc1cc(C(=O)N2CCC3(CC2)c2ccc(C(C)=O)n2CCN3C)ccc1OCC(C)C [Compound 230],≤ 2
23,CC(C)C(=O)c1ccc2n1CCN(C)C21CCN(C(=O)c2ccc(COCCC(F)(F)F)cc2)CC1 [Compound 359],≤ 2
24,CCn1cnc(-c2ccc(C(=O)N3CCC4(CC3)c3ccc(C(=O)C(F)(F)F)n3CCN4C)cc2C)c1 [Compound 489],≤ 2
25,Cc1cc(C(=O)N2CCC3(CC2)c2ccc(C(=O)C(F)(F)F)n2CCN3C)ccc1-c1cccc(Cl)c1 [Compound 236],≤ 2
26,COc1cc(C(=O)N2CCC3(CC2)c2ccc(C(F)(F)F)n2CCN3C(=O)N(C)C)ccc1OC(C)C [Compound 227],> 5

row,SMILES,IC50 [µM]
1,CCCCc1ccc(C(=O)N2CCC3(CC2)c2ccc(C(C)=O)n2CCN3C)cc1 [Compound 189],≤ 2
2,CC(C)Oc1ccc(C(=O)N2CCC3(CC2)c2ccc(Cl)n2CCN3C)cc1C#N [Compound 220],2 to 5
3,CC(C)Oc1ccc(C(=O)N2CCC3(CC2)NC(C)(C)Cn2c(C(=O)C(F)(F)F)ccc23)c(F)c1 [Compound 404],≤ 2
4,Cc1cc(C(=O)N2CCC3(CC2)NCC(C)n2c(C(=O)C(F)(F)F)ccc23)ccc1OC(C)C (stereo not shown) [Compound 524],≤ 2
5,COc1ccc(C(=O)N2CCC3(CC2)NC(C)(C)Cn2c(C(=O)C(F)(F)F)ccc23)nc1C [Compound 490],≤ 2
6,COc1ccc(C(=O)N2CCC3(CC2)c2ccc(C(=O)C4CC4)n2CCN3C)cc1Cl [Compound 484],≤ 2
7,COc1cc(C(=O)N2CC[C@]3(C[C@H]2C)c2ccc(C(F)(F)F)n2CCN3C)ccc1OC(C)C [Compound 328],> 5
8,CC(=O)c1ccc2n1CCN(C)C21CCN(C(=O)c2ccc(OC(C)C)c(C)c2)CC1 [Compound 122],≤ 2
9,COc1ccc(C(=O)N2CCC3(CC2)c2ccc(C(=O)C4(C)CC4)n2CCN3C)nc1C [Compound 448],≤ 2
10,CC1(C)Cn2c(C(=O)C(F)(F)F)ccc2C2(CCN(C(=O)c3ccc(O)c(C(F)(F)F)c3)CC2)N1 [Compound 567],≤ 2
11,CNC(=O)N1CCn2c(C(F)(F)F)ccc2C12CCN(C(=O)c1ccc(OC(C)C)cc1F)CC2 [Compound 474],2 to 5
12,COc1cc(C(=O)N2CCC3(CC2)N[C@H](C)Cn2c(C(F)(F)F)ccc23)ccc1OC(C)C [Compound 179],2 to 5
13,CC(C)C(=O)c1ccc2n1CCN(C)C21CCN(C(=O)c2ccc(O)c(Cl)c2)CC1 [Compound 620],2 to 5
14,Cc1cc(C(=O)N2CCC3(CC2)c2ccc(C(=O)C(F)(F)F)n2CCN3C)ccc1-c1ccccc1 [Compound 55],≤ 2
15,CN1CCn2c(C(=O)C(F)(F)F)ccc2C12CCN(C(=O)c1ccc(C3CCCCC3)cn1)CC2 [Compound 638],≤ 2
16,CC(C)S(=O)(=O)c1ccc(C(=O)N2CCC3(CC2)c2ccc(C(=O)C(F)(F)F)n2C[C@H](C)N3C)cc1 [Compound 500],≤ 2
17,CC[C@@H](C)Oc1ccc(C(=O)N2CCC3(CC2)c2ccc(Cl)n2CCN3C)cc1OC [Compound 294],≤ 2
18,CN1CCn2c(C(F)(F)F)ccc2C12CCN(C(=O)c1ccccc1-c1ccccc1)CC2 [Compound 393],> 5
19,CC1(C)Cn2c(C(=O)C(F)(F)F)ccc2C2(CCN(C(=O)c3ccc(COCCC(F)(F)F)cc3)CC2)N1 [Compound 103],≤ 2
20,COc1ccc(C(=O)N2CCC3(CC2)c2ccc(C(=O)C(C)(C)C)n2CCN3C)cc1Cl [Compound 58],≤ 2
21,Cc1cc(C(=O)N2CCC3(CC2)c2ccc(C(=O)C(F)(F)F)n2C(C)(C)CN3C)ccc1OC(C)C [Compound 437],≤ 2
22,COc1ccc(C(=O)N2CCC3(CC2)c2ccc(C(=O)C4CC4)n2CCN3C)cc1C(F)(F)F [Compound 132],≤ 2
23,COc1cc(C(=O)N2CCC3(CC2)c2c(C#N)cc(C(F)(F)F)n2CCN3C)ccc1OC(C)C [Compound 742],2 to 5
24,COC(=O)N1CCn2c(C(F)(F)F)ccc2C12CCN(C(=O)c1ccc(OC(C)C)c(C)c1)CC2 [Compound 460],≤ 2
25,CCC(=O)c1ccc2n1CCN(C)C21CCN(C(=O)c2ccc(OC(C)C)c(OC)c2)CC1 [Compound 607],2 to 5

# Second part, the compound after the results:
row,IC50 [µM],SMILES
1,≤ 2,Cc1cc(C(=O)N2CCC3(CC2)c2c(F)cc(C(F)(F)F)n2CCN3C)ccc1OCC(C)(C)O [Compound 217]
2,≤ 2,Cc1cc(C(=O)N2CCC3(CC2)c2ccc(C(F)(F)F)n2CCN3C)ccc1C(C)(C)O [Compound 98]
3,≤ 2,CC(C)(O)c1ccc(C(=O)N2CCC3(CC2)c2ccc(C(F)(F)F)n2CCN3CC(F)F)cc1 [Compound 354]
4,≤ 2,COc1cc(C(=O)N2CCC3(CC2)c2ccc(C(=O)C(F)(F)F)n2CCN3C)ccc1COCCC(F)(F)F [Compound 288]
5,≤ 2,CN1CCn2c(C(=O)C(F)(F)F)ccc2C12CCN(C(=O)c1ccc(COCCC(F)(F)F)cc1)CC2 [Compound 237]
6,≤ 2,Cc1cc(C(=O)N2CCC3(CC2)c2ccc(C(F)(F)F)n2CCN3C)ccc1OCCCO [Compound 583]
7,2 to 5,COc1ccc(C(=O)N2CCC3(CC2)c2ccc(Cl)n2CCN3C)cc1C(F)(F)F [Compound 624]
8,≤ 2,CNS(=O)(=O)c1ccc(C(=O)N2CCC3(CC2)c2ccc(C(=O)C(F)(F)F)n2CCN3C)cc1C [Compound 194]
9,> 5,Cc1cc(C(=O)N2CCC3(CC2)c2ccc(C(F)(F)F)n2CCN3C)ccc1S(C)(=O)=O [Compound 515]
10,≤ 2,Cc1cc(C(=O)N2CCC3(CC2)c2ccc(C(=O)C(F)(F)F)n2CCN3C)ccc1C(F)(F)F [Compound 471]
11,2 to 5,CN1CCn2c(C(F)(F)F)ccc2C12CCN(C(=O)c1ccccc1OC(F)(F)F)CC2 [Compound 272]
12,≤ 2,CC(=O)c1ccc2n1CCN(C)C21CCN(C(=O)c2ccc(OC(C)C)c(C(F)(F)F)c2)CC1 [Compound 732]
13,≤ 2,CCC(=O)c1ccc2n1CCN(C)C21CCN(C(=O)c2ccc(C(C)(C)O)c(C)c2)CC1 [Compound 591]
14,≤ 2,CN1CCn2c(C(F)(F)F)cc(F)c2C12CCN(C(=O)c1ccc(C(C)(C)O)c(F)c1)CC2 [Compound 616]
15,≤ 2,Cc1cc(C(=O)N2CCC3(CC2)c2ccc(Cl)n2CCN3C)ccc1C(C)(C)O [Compound 10]
16,≤ 2,CC(C)Oc1ccc(C(=O)N2CCC3(CC2)c2ccc(C(=O)C(F)(F)F)n2CCN3C)cc1C#N [Compound 51]
17,≤ 2,CN1CCn2c(C(=O)C(F)(F)F)ccc2C12CCN(C(=O)c1ccc(O)c(C(F)(F)F)c1)CC2 [Compound 733]
18,≤ 2,CCc1ccc(C(=O)N2CCC3(CC2)c2ccc(C(=O)C(F)(F)F)n2CCN3C)cc1OC [Compound 537]
19,≤ 2,CN1CCn2c(ccc2C(F)(F)C(F)(F)F)C12CCN(C(=O)c1ccc(CC(C)(C)O)c(F)c1)CC2 [Compound 226]
20,≤ 2,COCCOc1ccc(C(=O)N2CCC3(CC2)c2ccc(C(F)(F)C(F)(F)F)n2CCN3C)cc1OC [Compound 245]
21,≤ 2,CN1CCn2c(C(F)(F)F)cc(Cl)c2C12CCN(C(=O)c1ccc(C(C)(C)O)c(F)c1)CC2 [Compound 95]
22,≤ 2,CN1CCn2c(C(F)(F)F)ccc2C12CCN(C(=O)c1ccc(CC(C)(C)O)cc1)CC2 [Compound 499]
